Test results as given in PubChem BioAssay AID192 (DTP/NCI, 2004).
Where “and” joins values, the source holds several entries; their conditions need not be identical. Equal entries are not always repeated. Inconclusive results and toxic doses are left out.

Test system: BDF1 mice, B16 melanoma ip, median survival T/C
Assay: NCI In Vivo Anticancer Drug Screen. Data for tumor model B16 Melanoma (intraperitoneal) in B6D2F1 (BDF1) mice
Settings: endpoint: median survival time, higher = longer survival
Summary of the method: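 Transplantable tumor model; survival or tumor size measured; reported as T/C, treated over vehicle control.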

[1] = dose: 25.0 mg/kg/injection, schedule: Q01DX009 (ip), vehicle: saline with Tween-80
[2] = dose: 3.12 mg/kg/injection, schedule: Q01DX009 (ip), vehicle: saline
[3] = dose: 6.25 mg/kg/injection, schedule: Q01DX009 (ip), vehicle: saline
[4] = dose: 12.5 mg/kg/injection, schedule: Q01DX009 (ip), vehicle: saline
[5] = dose: 25.0 mg/kg/injection, schedule: Q01DX009 (ip), vehicle: saline
[6] = dose: 100.0 mg/kg/injection, schedule: Q01DX009 (ip), vehicle: saline

CC1OC(O[C@H]2/C=C/C=C/C=C/C=C/C=C/C=C/C=C/[C@H](C)[C@@H](O)[C@@H](C)[C@H](C)OC(=O)C[C@H](O)C[C@H](O)CC[C@@H](O)[C@H](O)C[C@H](O)C[C@]3(O)C[C@H](O)[C@@H](C(=O)O)[C@H](C2)O3)C(O)C(N)C1O (stereo not given in full)
T/C (dose: 1.0 mg/kg/injection, schedule: Q01DX009 (ip), vehicle: saline): 102 % of control and 124 % of control | T/C (dose: 2.0 mg/kg/injection, schedule: Q01DX009 (ip), vehicle: saline): 106 % of control and 113 % of control | T/C (dose: 4.0 mg/kg/injection, schedule: Q01DX009 (ip), vehicle: saline): 97 % of control and 116 % of control | T/C (dose: 8.0 mg/kg/injection, schedule: Q01DX009 (ip), vehicle: saline): 92 % of control and 102 % of control | T/C (dose: 16.0 mg/kg/injection, schedule: Q01DX009 (ip), vehicle: saline): 88 % of control and 98 % of control

ClCCN=Cc1ccc(Cl)cc1
T/C (dose: 100.0 mg/kg/injection, schedule: Q01DX009 (ip), vehicle: saline with Tween-80): 98 % of control | T/C (dose: 200.0 mg/kg/injection, schedule: Q01DX009 (ip), vehicle: saline with Tween-80): 95 % of control | T/C (dose: 400.0 mg/kg/injection, schedule: Q01DX009 (ip), vehicle: saline with Tween-80): 93 % of control

COc1cccc2c1C(=O)c1c(O)c3c(c(O)c1C2=O)C[C@@](O)(C(=O)COC(=O)Cc1ccccc1)C[C@@H]3OC1CC(N)C(O)C(C)O1 (stereo not given in full)
T/C (dose: 0.5 mg/kg/injection, schedule: Q01DX009 (ip), vehicle: saline with Tween-80): 151 % of control and 186 % of control | T/C (dose: 1.0 mg/kg/injection, schedule: Q01DX009 (ip), vehicle: saline with Tween-80): 165 % of control and 186 % of control | T/C (dose: 2.0 mg/kg/injection, schedule: Q01DX009 (ip), vehicle: saline with Tween-80): 172 % of control and 232 % of control

COC1=C(C)C(=O)C2=C(C1=O)C(CO)N1C(C#N)C3CC4C(C1C2N1CCOC41)N3C (stereo not given)
T/C (dose: 0.25 mg/kg/injection, schedule: Q01DX009 (ip), vehicle: saline + alcohol): 117 % of control | T/C (dose: 0.5 mg/kg/injection, schedule: Q01DX009 (ip), vehicle: saline + alcohol): 117 % of control | T/C (dose: 1.0 mg/kg/injection, schedule: Q01DX009 (ip), vehicle: saline + alcohol): 112 % of control

O=[N+]([O-])c1ccc(/C=C2/c3cc(Cl)ccc3-c3c(Cl)cc(Cl)cc32)cc1
T/C (dose: 6.25 mg/kg/injection, schedule: Q01DX009 (ip), vehicle: saline with Tween-80): 90 % of control | T/C [1]: 88 % of control

CCC1NC(=O)C(NC(=O)c2ncccc2O)C(C)OC(=O)C(c2ccccc2)NC(=O)C2CC(=O)CCN2C(=O)C(Cc2ccccc2)N(C)C(=O)C2CCCN2C1=O (stereo not given) (tested in a mixture with another compound)
T/C (dose: 18.75 mg/kg/injection, schedule: Q01DX009 (ip), vehicle: Klucel (hydroxypropylcellulose) (HPC)): 104 % of control | T/C (dose: 37.5 mg/kg/injection, schedule: Q01DX009 (ip), vehicle: Klucel (hydroxypropylcellulose) (HPC)): 108 % of control | T/C (dose: 75.0 mg/kg/injection, schedule: Q01DX009 (ip), vehicle: Klucel (hydroxypropylcellulose) (HPC)): 108 % of control

Cc1ccc(NC(=O)c2cccc(C(=O)Nc3ccc(C)c(C)c3)c2)cc1C
T/C (dose: 100.0 mg/kg/injection, schedule: Q04DX003 (ip), vehicle: Klucel (hydroxypropylcellulose) (HPC)): 97 % of control | T/C (dose: 200.0 mg/kg/injection, schedule: Q04DX003 (ip), vehicle: Klucel (hydroxypropylcellulose) (HPC)): 90 % of control | T/C (dose: 400.0 mg/kg/injection, schedule: Q04DX003 (ip), vehicle: Klucel (hydroxypropylcellulose) (HPC)): 93 % of control

O=S(=O)(F)c1cc(C[P+](c2ccccc2)(c2ccccc2)c2ccccc2)ccc1Cl
T/C (dose: 0.1 mg/kg/injection, schedule: Q01DX009 (ip), vehicle: saline with Tween-80): 105 % of control | T/C (dose: 0.1 mg/kg/injection, schedule: Q04DX003 (ip), vehicle: saline with Tween-80): 112 % of control | T/C (dose: 0.2 mg/kg/injection, schedule: Q01DX009 (ip), vehicle: saline with Tween-80): 90 % of control | T/C (dose: 0.2 mg/kg/injection, schedule: Q04DX003 (ip), vehicle: saline with Tween-80): 110 % of control | T/C (dose: 0.4 mg/kg/injection, schedule: Q01DX009 (ip), vehicle: saline with Tween-80): 100 % of control | T/C (dose: 0.4 mg/kg/injection, schedule: Q04DX003 (ip), vehicle: saline with Tween-80): 110 % of control | T/C (dose: 3.0 mg/kg/injection, schedule: Q04DX003 (ip), vehicle: saline with Tween-80): 86 % of control | T/C (dose: 12.5 mg/kg/injection, schedule: Q04DX003 (ip), vehicle: saline with Tween-80): 86 % of control

Nc1nc2c(ncn2C2OC(CO)C(O)C2N)c(=O)[nH]1 (stereo not given)
T/C [2]: 95 % of control and 110 % of control | T/C [3]: 101 % of control and 102 % of control and 104 % of control | T/C [4]: 106 % of control and 107 % of control and 110 % of control | T/C (dose: 25.0 mg/kg/injection, schedule: Q01DX005 (ip), vehicle: saline with Tween-80): 104 % of control | T/C [5]: 89 % of control and 101 % of control and 112 % of control | T/C (dose: 35.0 mg/kg/injection, schedule: Q01DX005 (ip), vehicle: saline with Tween-80): 104 % of control | T/C (dose: 50.0 mg/kg/injection, schedule: Q01DX009 (ip), vehicle: saline): 89 % of control and 101 % of control | T/C (dose: 55.0 mg/kg/injection, schedule: Q01DX005 (ip), vehicle: saline with Tween-80): 95 % of control | T/C (dose: 80.0 mg/kg/injection, schedule: Q01DX005 (ip), vehicle: saline with Tween-80): 104 % of control | T/C [6]: 96 % of control

O=C1N[C@@H]([C@H]2CC[C@H](Cl)CN2)C(=O)N[C@H]1[C@H]1CC[C@H](Cl)CN1
T/C (dose: 0.05 mg/kg/injection, schedule: Q01DX009 (ip), vehicle: saline): 107 % of control | T/C (dose: 0.1 mg/kg/injection, schedule: Q01DX009 (ip), vehicle: saline): 116 % of control | T/C (dose: 0.5 mg/kg/injection, schedule: Q04DX003 (ip), vehicle: saline): 103 % of control | T/C (dose: 1.0 mg/kg/injection, schedule: Q01DX001 (ip), vehicle: saline): 115 % of control | T/C (dose: 1.0 mg/kg/injection, schedule: Q04DX003 (ip), vehicle: saline): 119 % of control | T/C (dose: 1.25 mg/kg/injection, schedule: Q01DX001 (ip), vehicle: saline): 119 % of control | T/C (dose: 2.0 mg/kg/injection, schedule: Q01DX001 (ip), vehicle: saline): 120 % of control | T/C (dose: 2.0 mg/kg/injection, schedule: Q04DX003 (ip), vehicle: saline): 124 % of control | T/C (dose: 2.5 mg/kg/injection, schedule: Q01DX001 (ip), vehicle: saline): 114 % of control | T/C (dose: 10.0 mg/kg/injection, schedule: Q01DX009 (ip), vehicle: alkali diluted with saline): 30 % of control | T/C (dose: 16.0 mg/kg/injection, schedule: Q01DX001 (ip), vehicle: saline): 154 % of control | T/C (dose: 20.0 mg/kg/injection, schedule: Q01DX009 (ip), vehicle: alkali diluted with saline): 30 % of control | T/C (dose: 40.0 mg/kg/injection, schedule: Q01DX009 (ip), vehicle: alkali diluted with saline): 27 % of control | T/C (dose: 80.0 mg/kg/injection, schedule: Q01DX009 (ip), vehicle: alkali diluted with saline): 16 % of control

CC(=O)CC(=O)N1CCN(C(=O)CC(C)=O)CC1
T/C [6]: 87 % of control | T/C (dose: 200.0 mg/kg/injection, schedule: Q01DX009 (ip), vehicle: saline): 87 % of control | T/C (dose: 400.0 mg/kg/injection, schedule: Q01DX009 (ip), vehicle: saline): 91 % of control

COc1cc(C(=O)O)c2c(c1C)OC(=O)c1c(C)cc(O)c(C=O)c1O2
T/C (dose: 1.39 mg/kg/injection, schedule: Q01DX009 (ip), vehicle: saline with Tween-80): 97 % of control | T/C (dose: 2.78 mg/kg/injection, schedule: Q01DX009 (ip), vehicle: saline with Tween-80): 99 % of control | T/C (dose: 5.56 mg/kg/injection, schedule: Q01DX009 (ip), vehicle: saline with Tween-80): 110 % of control | T/C (dose: 6.25 mg/kg/injection, schedule: Q01DX009 (ip), vehicle: Klucel (hydroxypropylcellulose) (HPC)): 111 % of control | T/C (dose: 11.0 mg/kg/injection, schedule: Q01DX009 (ip), vehicle: saline with Tween-80): 158 % of control | T/C (dose: 12.5 mg/kg/injection, schedule: Q01DX009 (ip), vehicle: Klucel (hydroxypropylcellulose) (HPC)): 117 % of control | T/C (dose: 12.5 mg/kg/injection, schedule: Q01DX009 (ip), vehicle: saline with Tween-80): 150 % of control | T/C (dose: 25.0 mg/kg/injection, schedule: Q01DX009 (ip), vehicle: Klucel (hydroxypropylcellulose) (HPC)): 122 % of control | T/C [1]: 160 % of control | T/C (dose: 25.0 mg/kg/injection, schedule: Q04DX003 (ip), vehicle: saline with Tween-80): 113 % of control | T/C (dose: 50.0 mg/kg/injection, schedule: Q04DX003 (ip), vehicle: saline with Tween-80): 105 % of control

Cc1ccc2c(ccc3c[n+]4ccccc4c(C)c32)c1
T/C (dose: 1.25 mg/kg/injection, schedule: Q01DX009 (ip), vehicle: saline with Tween-80): 95 % of control | T/C (dose: 2.5 mg/kg/injection, schedule: Q01DX009 (ip), vehicle: saline with Tween-80): 95 % of control and 102 % of control | T/C (dose: 5.0 mg/kg/injection, schedule: Q01DX009 (ip), vehicle: saline with Tween-80): 90 % of control and 102 % of control

CN(C)CCC1(c2ccccc2)C=Cc2ccccc21 (stereo not given)
T/C [2]: 108 % of control | T/C [3]: 102 % of control | T/C [4]: 108 % of control | T/C [5]: 95 % of control
